Results on one compound are retold here after US12509414B2, “Carbon quantum dot, a composition thereof and a method for treating infection by using same” (NATIONAL TAIWAN OCEAN UNIVERSITY, priority 2019, dated 2025).

The test has as its system E. coli (Escherichia coli). The test can be described thus: Antibacterial test, MIC by standard dilution method (O.D. 600). The test is classed as cell-based. The settings on record: FIG. 4. The procedure: The minimum inhibitory concentration (MIC) value of a carbon quantum dot was determined by a standard dilution method in a variety of tested bacterial strains, including E. coli (Escherichia coli), P. aeruginosa (Pseudomonas aeruginosa), S. enteritidis (Salmonella enterica), S. aureus (Staphylococcus aureus), MRSA (Methicillin-resistant Staphylococcus aureus, a multi-drug resistant Staphylococcus), S. iniae (Streptococcus iniae), and C. albicans (Candida albicans).
A single colony of each strain was removed from the culture medium, and inoculated in each suitable growth medium (10 mL). The cultured bacteria were grown at 37° C. with shaking (200 rpm), until the absorbance at 600 nm (O.D. 600) reaches 1.0 (optical path length: 1.0 cm). Each cell mixture was centrifuged at 1.0 mL (RCF 3,000×g, […], 25° C.), and washed twice with 5 mM sodium phosphate buffer (pH 7.4) before further use. The carbon quantum dots were mixed with a 10^5 CFU/mL bacterial solution, and the final concentration of the reaction bacterial solution was 10^4 CFU/mL. After reaction for 3 hours, each suitable growth medium was added. After 12 hours of incubation in the incubator at the culture temperature of each strain, the absorbance at 600 nm (O.D. 600) was measured.

Molecules are shown by their SMILES.

Regarding `NCCCCCCN` [C, 1,6-diamino-hexane], the “antibacterial ability (comparison in words)” value is on record as “worst antibacterial effect”.
